Legend:
[1] = system: oxonic acid (OA)-induced hyperuricemic model in Sprague-Dawley rats; test: Example 4: micropuncture glomerular hemodynamics and mean arterial pressure under anesthesia in normal and OA-dosed rats; type: in vivo; conditions: for mean arterial blood pressure (effect in words): end of study, FIG. 3
Method: Materials and Methods. To produce hyperuricemia, rats received OA (Sigma, St Louis Mo., USA) 750 mg/kg body weight daily by gastric gavage. To investigate the treatment effect of febuxostat (also referred to herein as “Fx”), the drug was administered in drinking water at 50 mg/L (approximately 5-6 mg/kg/day) four weeks after OA dosing while the respective controls received 5.84 mg/L of NaCl in drinking water (to maintain a salt concentration equivalent to the Febuxostat-containing water). The following four groups (n=10-11) were included in the study: Group 1, normal control rats which received no treatment for eight weeks; Group 2, Normal+Febuxostat rats which received no treatment for four weeks and then were treated with febuxostat for four weeks from Weeks 5 to 8; Group 3, OA rats which received OA for eight weeks; and Group 4, OA+Febuxostat rats which received OA for eight weeks and febuxostat for four weeks from Weeks 5 to 8. Body weight, food and water intakes were measured daily. Systolic blood pressure, obtained in conscious rats by a tail cuff sphygmomanometer, and plasma uric acid were measured in all animals at baseline and at the end of four and eight weeks. A renal micropuncture procedure along with systemic arterial blood pressure monitoring under pentobarbital anesthesia were performed at the end of eight weeks followed by morphologic evaluation of the renal preglomerular microvasculature.
Micropuncture Procedure to Assess Glomerular Hemodynamics. Animals were anesthetized with pentobarbital sodium (30 mg/kg, i.p.) and placed on a thermoregulated table to maintain body temperature at 37° C. Trachea, jugular veins, femoral arteries and the left ureter were catheterized with polyethylene tubing (PE-240, PE-50 and PE-10). The left kidney was exposed, placed in a Lucite holder, sealed with agar and covered with Ringer's solution. Mean arterial pressure (hereinafter “MAP”) was monitored using a pressure transducer (Model p23 db; Gould, San Juan, PR) connected to the catheter in the femoral artery and recorded on a polygraph (Grass Instruments, Quincy, Mass., USA). Blood samples were taken periodically and replaced with blood from a donor rat. Rats were maintained under euvolemic conditions by infusion of 10 mL/kg of body weight of isotonic rat plasma during surgery, followed by an infusion of 25% polyfructosan at 2.2 mL/h (Mutest, Fresenius Kabi, Linz, Austria). After 60 min, five to seven samples of proximal tubular fluid were obtained to determine flow rate and polyfructosan concentrations. Intratubular pressure under free-flow (hereinafter “FF”) and stop-flow (hereinafter “SFP”) conditions and peritubular capillary pressure (hereinafter “Pc”) were measured in other proximal tubules with a servo-null device (Servo Nulling Pressure System; Instrumentation for Physiology and Medicine, San Diego, Calif., USA). Glomerular colloid osmotic pressure was estimated from protein concentrations obtained from blood of the femoral artery (hereinafter “Ca”) and surface efferent arterioles (hereinafter “Ce”). Polyfructosan was measured in plasma and urine samples by the anthrone-based technique of Davidson and Sackner (See, Davidson W D et al., J Lab Clin Med 62:351-356 (1963)). Plasma samples were deproteinated first with trichloroacetic acid. After centrifugation, the supernatant was used for polyfructosan measurement. Polyfructosan concentrations in plasma and urine samples were assessed by addition of anthrone reagent followed by incubation at 45° C. for 50 min and reading in a spectrophotometer set at wavelength of 620 nm. Concentrations were calculated by interpolating the absorbance values using a standard curve (0.01-0.05 mg/mL). Total glomerular filtration rate (hereinafter “GFR”) was calculated using the following formula: GFR=(U×V)/P, where U is the polyfructosan concentration in urine, V is urine flow rate, and P is the polyfructosan concentration in plasma. […]

[2] = system: oxonic acid (OA)-induced hyperuricemic model in Sprague-Dawley rats; test: Example 4: renal arteriolar morphology in normal and OA-dosed rats; type: in vivo
Method: Materials and Methods. To produce hyperuricemia, rats received OA (Sigma, St Louis Mo., USA) 750 mg/kg body weight daily by gastric gavage. To investigate the treatment effect of febuxostat (also referred to herein as “Fx”), the drug was administered in drinking water at 50 mg/L (approximately 5-6 mg/kg/day) four weeks after OA dosing while the respective controls received 5.84 mg/L of NaCl in drinking water (to maintain a salt concentration equivalent to the Febuxostat-containing water). The following four groups (n=10-11) were included in the study: Group 1, normal control rats which received no treatment for eight weeks; Group 2, Normal+Febuxostat rats which received no treatment for four weeks and then were treated with febuxostat for four weeks from Weeks 5 to 8; Group 3, OA rats which received OA for eight weeks; and Group 4, OA+Febuxostat rats which received OA for eight weeks and febuxostat for four weeks from Weeks 5 to 8. Body weight, food and water intakes were measured daily. Systolic blood pressure, obtained in conscious rats by a tail cuff sphygmomanometer, and plasma uric acid were measured in all animals at baseline and at the end of four and eight weeks. […]
Renal Histology and Quantification of Morphology. […] Arteriolar morphology was assessed by indirect peroxidase immunostaining for alpha smooth-muscle actin (DAKO Corp, Carpinteria, Calif., USA). […]
For each arteriole, the outline of the vessel and its internal lumen (excluding the endothelium) were generated using computer analysis to calculate the total medial area (outline−inline) in 10 arterioles per biopsy. The media/lumen ratio was calculated by the outline/inline relationship (See, Sanchez-Lozada L G, et al., Am J Physiol Renal Physiol 283:F1105-F1110, (2002) and Sanchez-Lozada L G, et al., Kidney Int 67:237-247 (2005)). Quantifications were performed blinded.
Statistical Analysis. Values were expressed as mean±standard error of the mean (hereinafter “SEM”). In the study, values from the respective four treatment groups were analyzed by one-way analysis of variance (hereinafter “ANOVA”). […]

[3] = Normal + FX rats, end of eight weeks
[4] = OA + Fx rats, end of eight weeks

Cc1nc(-c2ccc(OCC(C)C)c(C#N)c2)sc1C(=O)O [febuxostat, 2-[3-cyano-4-(2-methylpropoxy)phenyl]-4-methylthiazole-5-carboxylic acid]
FF (free flow tubular pressure) [1, 3]: 13.4 ± 0.8 mmHg
GFR (glomerular filtration rate) [1, 3]: 0.9 ± 0.1 mL/min
Kf (ultrafiltration coefficient) [1, 3]: 0.046 ± 0.004 nL/s · mmHg
PGC (glomerular capillary pressure) [1, 3]: 46.3 ± 1.4 mmHg
Pc (peritubular capillary pressure) [1, 3]: 12.5 ± 0.8 mmHg
QA (glomerular plasma flow) [1, 3]: 135.0 ± 11.2 nL/min
SFP (stop flow pressure) [1, 3]: 30.7 ± 0.8 mmHg
SNGFR (single nephron GFR) [1, 3]: 34.6 ± 2.3 nL/min
MAP (mean arterial pressure) ([1]; Normal + FX rats, end of eight weeks, under anesthesia): 123 ± 3 mmHg
FF (free flow tubular pressure) [1, 4]: 12.9 ± 0.5 mmHg
GFR (glomerular filtration rate) [1, 4]: 1.0 ± 0.1 mL/min
Kf (ultrafiltration coefficient) [1, 4]: 0.070 ± 0.011 nL/s · mmHg
PGC (glomerular capillary pressure) [1, 4]: 46.5 ± 1.0 mmHg
Pc (peritubular capillary pressure) [1, 4]: 13.2 ± 0.7 mmHg
QA (glomerular plasma flow) [1, 4]: 183.6 ± 21.4 nL/min
SFP (stop flow pressure) [1, 4]: 29.7 ± 1.0 mmHg
SNGFR (single nephron GFR) [1, 4]: 45.7 ± 5.2 nL/min
ultrafiltration coefficient (Kf) compared to the other groups (in words) [1, 4]: numerically, but insignificantly higher
MAP (mean arterial pressure) ([1]; OA + Fx rats, end of eight weeks, under anesthesia, listed as Fx): 112 ± 5 mmHg
elevation in glomerular capillary pressure (PGC) and stop flow pressure (effect in words) ([1]; OA-treated rats, end of eight weeks): prevented these changes
mean arterial blood pressure (effect in words) ([1]; OA-treated rats, intra-arterial cannulation under anesthesia): reduced to the normal range
glomerular hemodynamics (effect in words) ([1]; normal rats, end of eight weeks): did not alter glomerular hemodynamics
mean arterial blood pressure (effect in words) ([1]; normal rats, under anesthesia): did not alter MAP
thickening of the afferent arteriole (medial area), effect in words ([2]; OA-treated rats, FIG. 4): able to alleviate this thickening
arteriolar media-lumen ratio (effect in words) ([2]; OA-treated rats, FIG. 5): significantly reduced
arteriolar morphology (effect in words) ([2]; normal rats): no effect on arteriolar morphology
